Measured values from patent US12551482B2, “Aurora kinase inhibitors” (The Regents of the University of California, priority 2013, dated 2026).
“Also recorded” adds a separate entry of the source.

What was measured:
[1] = molecular target: T1, Aurora A (Homo sapiens, UniProt O14965, T287D); experiment: In vitro kinase assay for Aurora A (32P ATP); assay type: biochemical
T1 construct: Aurora A (residues 123-390, T287D) was cloned into a pET28a plasmid; hexahistidine (PreScission Protease-cleavable) (cleaved yes); made in house; host or cells: E. coli BL-21(DE3)
T1 sequence (O14965 123-390 T287D): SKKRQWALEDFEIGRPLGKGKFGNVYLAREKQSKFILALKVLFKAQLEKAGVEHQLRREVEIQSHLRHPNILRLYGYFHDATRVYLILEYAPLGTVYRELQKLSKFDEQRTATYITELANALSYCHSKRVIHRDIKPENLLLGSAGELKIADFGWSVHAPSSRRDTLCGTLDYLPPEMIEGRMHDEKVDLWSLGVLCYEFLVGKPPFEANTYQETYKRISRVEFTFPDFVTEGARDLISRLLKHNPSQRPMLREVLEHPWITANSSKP
Procedure: Kinase assays for Aurora A were performed in 10 mM HEPES pH 7.5, 10 mM MgCl2, 0.01% Triton, 4% v/v DMSO, 5 nM kinase, and either 4 μM histone H3 or 30 μM synthetic peptide [sequence] (Elim Biopharmaceuticals, Inc). Drug concentration ranged from 2000-5 nM. Reactions were preincubated with inhibitor for ten minutes before initiation by addition of 100 μM nonradioactive ATP supplemented with ^32P ATP (1 mCi in 200 μL, Perkin-Elmer, 0.8 ρCi per reaction). Reactions were quenched at 10 min by spotting 3 μL quantity onto P81 phosphocellulose (Whatman), which were washed 5×5′ in 0.1% phosphoric acid and dried. Radioactivity was measured by phosphorimaging and recorded on a Typhoon fluorescence imager (Molecular Dynamics).

[2] = test system: MYCN; experiment: MYCN protein by western blot in SK-N-BE(2) cells; assay type: cell-based; conditions: for efficacy against MYCN (loss of MYCN protein), in words: 24 hrs, 1 μM of compound (FIG. 3)
Procedure: (§1) Neuroblastoma tumor cell lines were obtained from the University of California San Francisco Cell Culture Facility (Kelly, SK-N-BE2, and SH-EP). SMS-KCN, SHEP MYCN^wt and MYCN^T58A/S62A cells were obtained. All cells were grown in RPMI with 10% FBS. Neuroblastoma cells were harvested and lysed with Cell Signaling Lysis buffer+1% SDS, sonicated and supernatants boiled in LDS sample buffer (Invitrogen). Western blots were performed as described previously (Chanthery et al., 2012), with primary antibodies to MYCN (ab24193, Abcam), Histone H3, P-Histone H3 (S10), Aurora A (Cell signaling), and GAPDH (Millipore). Western blot quantitation performed with ImageJ software.

[3] = test system: p-Histone H3; experiment: p-Histone H3 by immunoblot in compound-treated cells (structure-activity); assay type: cell-based
Procedure: as §1

[4] = test system: MYCN; experiment: MYCN levels in JM134- vs NHC532-treated cells (FIG. 10); assay type: cell-based
[5] = test system: MYCN amplified neuroblastoma cells; experiment: Cell cycle by flow cytometry; assay type: cell-based
Procedure: (§2) Neuroblastoma cells were treated for the indicated time, trypsinized, washed, stained with Dylight 800 at 0.3 μg/mL (Pierce, 46421), fixed with 1.5% PFA, and permeabilized with 100% methanol. Cells were then stained with antibodies against p-MPM2 (Millipore, 16-155), p-pan-Aurora (Cell Signaling, 2914), MYCN (Thermo, PA5-17403), rabbit IgG (Invitrogen, A10542), or mouse IgG (BioLegend, 405307). Cells were stained with DAPI at 0.3 μg/mL (Invitrogen, D21490) and analyzed on the BD LSR II flow cytometer. For cell cycle analysis, cells were stimulated with EdU for 2 hours prior to harvest, then probed using the Click-iT EdU Flow Cytometry Assay Kit (Invitrogen, C10424). Cells were stained with propidium iodide (BD, 556547) and analyzed on the BD FACSCalibur flow cytometer. Data was gated using Cytobank. For viability studies, neuroblastoma cells were plated in 96-well plates at a density of 1,000 cells/well for SHEP or 4,000 cells/well for Kelly or SK—N-BE2 cells, then incubated with indicated concentrations of drug for 72 hours at 37° C. Plates were frozen at −80° C. to induce cell lysis. CyQUANT reagent mixture (Invitrogen, C7026) was added to thawed plates, then fluorescence was measured. Alternatively, resazurin (Sigma-Aldrich, R7017) was added directly to wells following drug treatment then incubated for 4 hours at 37° C. prior to measuring fluorescence. Data was analyzed using GraphPad Prism software.

[6] = test system: tumor-derived cell lines; experiment: Screen of panel of tumor-derived, genetically characterized cell lines; assay type: cell-based; conditions: Wilcoxon Rank Sum test
[7] = test system: Kelly MYCN-amplified neuroblastoma cells; experiment: Viability at 72 hrs, CyQUANT assay; assay type: cell-based; conditions: FIG. 1F, read-out: cellular EC50 at 72 hrs
Procedure: as §2, with “Plates were frozen at −80° C. to induce cell lysis.” left out

[8] = test system: MYCN; experiment: Screen of Kelly MYCN-amplified cells, western blot for MYCN; assay type: cell-based; conditions: 1 μM, 24 hrs
Procedure: as §1
(§3) To test whether this panel of 32 putative conformation-disrupting Aurora A inhibitors would destabilize MYCN, initially Kelly MYCN-amplified neuroblastoma cells were treated with candidate inhibitors and MYCN protein was measured by western blot. Phosphorylation of Histone H3, a known substrate for Aurora A and B and a marker for mitosis, was also assessed. FIGS. 1B and 5 show decreased levels of both MYCN protein and p-Histone H3 in response to several members of the screening panel (quantitated in FIG. 1).

[9] = test system: phospho-histone H3; experiment: Screen of Kelly MYCN-amplified cells, western blot for phospho-histone H3; assay type: cell-based; conditions: 1 μM, 24 hrs
Procedure: as §1, §3

[10] = test system: MYCN; experiment: Dose response immunoblot for MYCN in MYCN-amplified neuroblastoma cell lines (SK-N-BE(2), SMS-KCN, Kelly); assay type: cell-based; conditions: multiple cell lines, 24 hrs (FIGS. 1D and 7)
Procedure: as §1

[11] = molecular target: T2, Aurora A protein (Homo sapiens, UniProt O14965); experiment: Dose response immunoblot for Aurora A protein in MYCN-amplified neuroblastoma cell lines; assay type: cell-based; conditions: across cell lines (FIGS. 1D and 7)
T2 construct: endogenous in cells; host or cells: SK-N-BE(2), SMS-KCN, Kelly neuroblastoma cells
Procedure: Neuroblastoma tumor cell lines were obtained from the University of California San Francisco Cell Culture Facility (Kelly, SK-N-BE2, and SH-EP). SMS-KCN, SHEP MYCN^wt and MYCN^T58A/S62A cells were obtained. All cells were grown in RPMI with 10% FBS. Neuroblastoma cells were harvested and lysed with Cell Signaling Lysis buffer+1% SDS, sonicated and supernatants boiled in LDS sample buffer (Invitrogen). […] Western blot quantitation performed with ImageJ software.

[12] = test system: P-Histone H3 (S10); experiment: Dose response immunoblot for phosphorylation of Histone H3 (S10) in MYCN-amplified neuroblastoma cell lines; assay type: cell-based; conditions: FIGS. 1D and 7
Procedure: as §1

[13] = molecular target: T3, MYCN-Aurora A complex (Homo sapiens, UniProt O14965); experiment: Pulldown of MYCN and immunoblot for Aurora A; assay type: cell-based; conditions: MYCN-amplified IMR32 cells, 4 hrs MG-132, 2 hrs drug, increasing concentrations
T3 construct: Representative immunoprecipitation of MYCN and immunoblots from MYCN-amplified IMR32 cells; endogenous in cells

[14] = test system: phospho-pan-Aurora; experiment: Phospho-pan-Aurora by flow cytometry; assay type: cell-based; conditions: 1 μM, 6 hrs (FIG. 6C)
Procedure: as §2

[15] = delivered at the same dose (20 mg/kg); cited from earlier work
[16] = test system: MYCN; experiment: MYCN protein by immunoblot in SHEP cells expressing MYCN; assay type: cell-based; conditions: SHEP cells expressing MYCNWT, 24 hrs, increasing concentrations (FIG. 12C)
Procedure: as §1
MYCN is believed to be sequentially phosphorylated at S62/T58 before it is targeted for degradation by ubiquitination, and only phosphorylated, ubiquitinated MYCN is protected from degradation by Aurora A (Gustafson and Weiss, 2010; Otto et al., 2009).

T3 sequence (O14965 whole entry, one chain of several): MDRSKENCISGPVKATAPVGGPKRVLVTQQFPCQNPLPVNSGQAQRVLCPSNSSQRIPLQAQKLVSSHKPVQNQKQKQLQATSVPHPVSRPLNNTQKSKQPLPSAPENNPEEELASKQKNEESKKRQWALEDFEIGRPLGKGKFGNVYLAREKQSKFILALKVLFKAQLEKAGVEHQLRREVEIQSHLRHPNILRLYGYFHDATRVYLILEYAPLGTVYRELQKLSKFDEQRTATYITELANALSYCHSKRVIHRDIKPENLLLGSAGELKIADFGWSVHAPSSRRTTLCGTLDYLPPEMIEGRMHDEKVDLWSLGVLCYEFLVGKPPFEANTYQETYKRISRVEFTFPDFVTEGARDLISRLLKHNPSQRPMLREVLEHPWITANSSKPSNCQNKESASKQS
T2 sequence (O14965 whole entry): as the sequence (O14965 whole entry, one chain of several) above

Cc1cc(Nc2cc(C3CCCC3)[nH]n2)nc(Nc2ccc(NC(=O)Nc3cccc(C(F)(F)F)c3)cc2)n1 [CD15, 1-(4-((4-((5-cyclopentyl-1H-pyrazol-3-yl)amino)-6-methylpyrimidin-2-yl)amino)phenyl)-3-(3-(trifluoromethyl)phenyl)urea]
potency against Aurora A (biochemical, cell-free), in words [1]: maintained both cell-free potency and efficacy against MYCN | efficacy against MYCN (loss of MYCN protein), in words [2]: maintained both cell-free potency and efficacy against MYCN

Cc1cc(Nc2cc(C3CCCCC3)[nH]n2)nc(Nc2ccc(NC(=O)Nc3cccc(C(F)(F)F)c3)cc2)n1 [CD22, 3-[4-({4-[(5-cyclohexyl-1H-pyrazol-3-yl)amino]-6-methylpyrimidin-2-yl}amino)phenyl]-1-[3-(trifluoromethyl)phenyl]urea]
potency against Aurora A (biochemical, cell-free), in words [1]: lost both potency against Aurora A and efficacy against MYCN | efficacy against MYCN (loss of MYCN protein), in words [2]: lost both potency against Aurora A and efficacy against MYCN

Cc1cc(Nc2cc(C3CCCCC3)[nH]n2)nc(Nc2ccc(NC(=O)Nc3ccccc3)cc2)n1 [CD24, 3-[4-({4-[(5-cyclohexyl-1H-pyrazol-3-yl)amino]-6-methylpyrimidin-2-yl}amino)phenyl]-1-phenylurea]
potency against Aurora A (biochemical, cell-free), in words [1]: lost both potency against Aurora A and efficacy against MYCN | efficacy against MYCN (loss of MYCN protein), in words [2]: lost both potency against Aurora A and efficacy against MYCN

O=C(Nc1ccccc1)Nc1ccc(Nc2nccc(Nc3cc(C4CCCC4)[nH]n3)n2)cc1 [CD25, 3-[4-({4-[(5-cyclopentyl-1H-pyrazol-3-yl)amino]pyrimidin-2-yl}amino)phenyl]-1-phenylurea]
potency against Aurora A (biochemical, cell-free), in words [1]: retained potency against Aurora Kinase A activity | efficacy against MYCN (loss of MYCN protein), in words [2]: less effective than CD532 in driving MYCN loss | Histone H3 phosphorylation ([3]; SK-N-BE(2) cells, 24 hrs, 1 μM (FIG. 3D)): loss of Histone H3 phosphorylation

O=C(Nc1ccc(Nc2nccc(Nc3cc(-c4ccco4)[nH]n3)n2)cc1)Nc1cccc(C(F)(F)F)c1 [JM134, 1-(4-((4-((5-(furan-2-yl)-1H-pyrazol-3-yl)amino)pyrimidin-2-yl)amino)phenyl)-3-(3-(trifluoromethyl)phenyl)urea]
increase in biochemical IC50 against Aurora A compared to NHC532 (CD532) [1]: 5 fold | potency against Aurora A (biochemical, cell-free), in words [1]: decreased binding affinity to Aurora A | level of p-Histone H3 compared to NHC532-treated cells ([3]; FIG. 10): higher level of p-Histone H3 | MYCN levels compared to NHC532 (CD532) [4]: still decreases MYCN levels (though not as completely)

Cc1sc2c(c1C)C(c1ccc(Cl)cc1)=N[C@@H](CC(=O)OC(C)(C)C)c1nnc(C)n1-2 [JQ1, reference compound]
cell cycle effect ([5]; 24 hrs of treatment): blockade of S-phase entry and accumulation of cells in G0/G1 | susceptibility of MYCN amplified vs non-amplified cell lines [6]: significantly more susceptible to JQ1 than non-amplified lines

COc1cc(Nc2ncc3c(n2)-c2ccc(Cl)cc2C(c2c(F)cccc2OC)=NC3)ccc1C(=O)O [MLN8237]
EC50 [7]: 33.9 nM | time dependence of MYCN protein loss ([2]; 1 μM, time course (FIG. 12A)): similarly rapid, but much more modest decrease in levels of MYCN protein that does not change over time | MYCN protein level [8]: much more modest effects on levels of MYCN protein | p-Histone H3 level [9]: blocked Histone H3 phosphorylation at 1 μM | MYCN protein, dose response [10]: little or no response to high concentrations; also recorded: little loss of MYCN protein even at doses 100 to 1000 times greater than their IC50 values for Aurora A | Aurora A protein level [11]: upregulated or had little effect on Aurora A protein | phosphorylation of Histone H3 at S10, dose response [12]: initial increase in S10 phosphorylation at lower concentrations, followed by a sharp drop at higher concentrations | MYCN-Aurora A interaction [13]: partial loss of interaction; also recorded: only modestly disrupted this interaction | cell cycle effect ([5]; 4 or 6 hrs of treatment): G2/M arrest | phospho-pan-Aurora [14]: loss of phospho-pan-Aurora | AUC0-24 [15]: 78.4 µM·h

Cc1cc(Nc2cc(N3CCN(C)CC3)nc(Sc3ccc(NC(=O)C4CC4)cc3)n2)n[nH]1 [VX-680]
MYCN protein level [8]: much more modest effects on levels of MYCN protein | p-Histone H3 level [9]: blocked Histone H3 phosphorylation at 1 μM | MYCN protein, dose response [10]: little loss of MYCN protein even at doses 100 to 1000 times greater than their IC50 values for Aurora A | phosphorylation of Histone H3 at S10, dose response [12]: abrogates phosphorylation of Histone H3 at S10 | wild-type MYCN protein [16]: little effect on MYCN protein levels | cell cycle effect ([5]; 4 or 6 hrs of treatment): G2/M arrest | phospho-pan-Aurora [14]: loss of phospho-pan-Aurora
